According to ChEMBL document CHEMBL4229333, “Effects of rigidity on the selectivity of protein kinase inhibitors” (Eur J Med Chem, 2018):

Assays:
[1] = biological target: Serine/threonine-protein kinase B-raf (Homo sapiens, UniProt P15056, V600E); assay: Inhibition of BRAF V600E mutant (unknown origin) after 20 mins by immunoblotting assay
[2] = biological target: RAC-alpha serine/threonine-protein kinase (Homo sapiens) (UniProt P31749); assay: Inhibition of AKT1 (unknown origin) at 1 uM by mobility shift microfluidics platform based assay relative to control
[3] = biological target: RAC-beta serine/threonine-protein kinase (Homo sapiens) (UniProt P31751); assay: Inhibition of AKT2 (unknown origin) at 1 uM by mobility shift microfluidics platform based assay relative to control
[4] = biological target: AMPK alpha2/beta1/gamma1 (Homo sapiens) (UniProt P54646+P54619+Q9Y478); assay: Inhibition of AMP-A2B1G1 (unknown origin) at 1 uM by mobility shift microfluidics platform based assay relative to control; assay type: protein-complex assay
[5] = biological target: Aurora kinase B (Homo sapiens) (UniProt Q96GD4); assay: Inhibition of AURORA-B (unknown origin) at 1 uM by mobility shift microfluidics platform based assay relative to control
Homo sapiens [6] = species on record: Homo sapiens; assay: Inhibition of CDK6/Cyclin D (unknown origin) at 1 uM by mobility shift microfluidics platform based assay relative to control
Homo sapiens [7] = species on record: Homo sapiens; assay: Inhibition of CDK/cyclin D3 (unknown origin) at 1 uM by mobility shift microfluidics platform based assay relative to control
[8] = biological target: Serine/threonine-protein kinase Chk1 (Homo sapiens) (UniProt O14757); assay: Inhibition of CHEK1 (unknown origin) at 1 uM by mobility shift microfluidics platform based assay relative to control
[9] = biological target: Casein kinase I isoform gamma-1 (Homo sapiens) (UniProt Q9HCP0); assay: Inhibition of CK1-gamma1 (unknown origin) at 1 uM by mobility shift microfluidics platform based assay relative to control
[10] = biological target: Fibroblast growth factor receptor 4 (Homo sapiens) (UniProt P22455); assay: Inhibition of FGFR4 (unknown origin) at 1 uM by mobility shift microfluidics platform based assay relative to control
[11] = biological target: G protein-coupled receptor kinase 6 (Homo sapiens) (UniProt P43250); assay: Inhibition of GRK6 (unknown origin) at 1 uM by mobility shift microfluidics platform based assay relative to control
[12] = biological target: Glycogen synthase kinase-3 beta (Homo sapiens) (UniProt P49841); assay: Inhibition of GSK-3-beta (unknown origin) at 1 uM by mobility shift microfluidics platform based assay relative to control
[13] = biological target: Inhibitor of nuclear factor kappa-B kinase subunit alpha (Homo sapiens) (UniProt O15111); assay: Inhibition of IKK-alpha (unknown origin) at 1 uM by mobility shift microfluidics platform based assay relative to control
[14] = biological target: Mitogen-activated protein kinase 8 (Homo sapiens) (UniProt P45983); assay: Inhibition of JNK1 (unknown origin) at 1 uM by mobility shift microfluidics platform based assay relative to control
[15] = biological target: Mitogen-activated protein kinase 9 (Homo sapiens) (UniProt P45984); assay: Inhibition of JNK2 (unknown origin) at 1 uM by mobility shift microfluidics platform based assay relative to control
[16] = tested on: Leucine-rich repeat serine/threonine-protein kinase 2 (Homo sapiens), Q5S007 [G2019S]; assay: Inhibition of LRRK2 G2019S mutant (unknown origin) at 1 uM by mobility shift microfluidics platform based assay relative to control
[17] = biological target: Mitogen-activated protein kinase kinase kinase kinase 4 (Homo sapiens) (UniProt O95819); assay: Inhibition of MAP4K4 (unknown origin) at 1 uM by mobility shift microfluidics platform based assay relative to control
[18] = biological target: MAP kinase-activated protein kinase 2 (Homo sapiens) (UniProt P49137); assay: Inhibition of MAPKAPK2 (unknown origin) at 1 uM by mobility shift microfluidics platform based assay relative to control
[19] = biological target: Maternal embryonic leucine zipper kinase (Homo sapiens) (UniProt Q14680); assay: Inhibition of MELK (unknown origin) at 1 uM by mobility shift microfluidics platform based assay relative to control
[20] = biological target: Serine/threonine-protein kinase Nek6 (Homo sapiens) (UniProt Q9HC98); assay: Inhibition of NEK6 (unknown origin) at 1 uM by mobility shift microfluidics platform based assay relative to control
[21] = biological target: PAS domain-containing serine/threonine-protein kinase (Homo sapiens) (UniProt Q96RG2); assay: Inhibition of PASK (unknown origin) at 1 uM by mobility shift microfluidics platform based assay relative to control
[22] = biological target: Eukaryotic translation initiation factor 2-alpha kinase 3 (Homo sapiens) (UniProt Q9NZJ5); assay: Inhibition of PERK (unknown origin) at 1 uM by mobility shift microfluidics platform based assay relative to control
[23] = biological target: Phosphatidylinositol 4,5-bisphosphate 3-kinase catalytic subunit alpha isoform (Homo sapiens) (UniProt P42336); assay: Inhibition of PI3K-alpha (unknown origin) at 1 uM by mobility shift microfluidics platform based assay relative to control
[24] = biological target: Protein kinase C beta type (Homo sapiens) (UniProt P05771); assay: Inhibition of PKC-beta2 (unknown origin) at 1 uM by mobility shift microfluidics platform based assay relative to control
[25] = biological target: Protein kinase C gamma type (Homo sapiens) (UniProt P05129); assay: Inhibition of PKC-gamma (unknown origin) at 1 uM by mobility shift microfluidics platform based assay relative to control
[26] = biological target: Serine/threonine-protein kinase D1 (Homo sapiens) (UniProt Q15139); assay: Inhibition of PRKD1 (unknown origin) at 1 uM by mobility shift microfluidics platform based assay relative to control
[27] = biological target: Receptor-interacting serine/threonine-protein kinase 2 (Homo sapiens) (UniProt O43353); assay: Inhibition of RIPK2 (unknown origin) at 1 uM by mobility shift microfluidics platform based assay relative to control
[28] = biological target: Ribosomal protein S6 kinase alpha-3 (Homo sapiens) (UniProt P51812); assay: Inhibition of RSK2 (unknown origin) at 1 uM by mobility shift microfluidics platform based assay relative to control
[29] = biological target: Serine/threonine-protein kinase Sgk3 (Homo sapiens) (UniProt Q96BR1); assay: Inhibition of SGK3 (unknown origin) at 1 uM by mobility shift microfluidics platform based assay relative to control
[30] = biological target: Serine/threonine-protein kinase SIK2 (Homo sapiens) (UniProt Q9H0K1); assay: Inhibition of SNF1LK2 (unknown origin) at 1 uM by mobility shift microfluidics platform based assay relative to control
[31] = biological target: Tyrosine-protein kinase Srms (Homo sapiens) (UniProt Q9H3Y6); assay: Inhibition of SRMS (unknown origin) at 1 uM by mobility shift microfluidics platform based assay relative to control
[32] = biological target: SRSF protein kinase 1 (Homo sapiens) (UniProt Q96SB4); assay: Inhibition of SRPK1 (unknown origin) at 1 uM by mobility shift microfluidics platform based assay relative to control
[33] = biological target: TRAF2 and NCK-interacting protein kinase (Homo sapiens) (UniProt Q9UKE5); assay: Inhibition of TNIK (unknown origin) at 1 uM by mobility shift microfluidics platform based assay relative to control
[34] = biological target: Testis-specific serine/threonine-protein kinase 2 (Homo sapiens) (UniProt Q96PF2); assay: Inhibition of TSSK2 (unknown origin) at 1 uM by mobility shift microfluidics platform based assay relative to control
Chain of Testis-specific serine/threonine-protein kinase 2 (Homo sapiens) (Q96PF2 whole entry): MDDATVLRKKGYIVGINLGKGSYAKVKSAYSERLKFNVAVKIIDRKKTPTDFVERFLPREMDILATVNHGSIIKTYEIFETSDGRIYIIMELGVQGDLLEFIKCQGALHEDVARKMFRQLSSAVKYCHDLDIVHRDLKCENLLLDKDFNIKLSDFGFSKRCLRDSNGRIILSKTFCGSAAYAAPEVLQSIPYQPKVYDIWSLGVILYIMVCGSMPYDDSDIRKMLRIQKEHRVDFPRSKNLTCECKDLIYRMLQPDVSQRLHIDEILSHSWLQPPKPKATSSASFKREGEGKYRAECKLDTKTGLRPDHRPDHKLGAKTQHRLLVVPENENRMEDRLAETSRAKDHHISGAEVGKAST

Chain of Serine/threonine-protein kinase Sgk3 (Homo sapiens) (Q96BR1 whole entry): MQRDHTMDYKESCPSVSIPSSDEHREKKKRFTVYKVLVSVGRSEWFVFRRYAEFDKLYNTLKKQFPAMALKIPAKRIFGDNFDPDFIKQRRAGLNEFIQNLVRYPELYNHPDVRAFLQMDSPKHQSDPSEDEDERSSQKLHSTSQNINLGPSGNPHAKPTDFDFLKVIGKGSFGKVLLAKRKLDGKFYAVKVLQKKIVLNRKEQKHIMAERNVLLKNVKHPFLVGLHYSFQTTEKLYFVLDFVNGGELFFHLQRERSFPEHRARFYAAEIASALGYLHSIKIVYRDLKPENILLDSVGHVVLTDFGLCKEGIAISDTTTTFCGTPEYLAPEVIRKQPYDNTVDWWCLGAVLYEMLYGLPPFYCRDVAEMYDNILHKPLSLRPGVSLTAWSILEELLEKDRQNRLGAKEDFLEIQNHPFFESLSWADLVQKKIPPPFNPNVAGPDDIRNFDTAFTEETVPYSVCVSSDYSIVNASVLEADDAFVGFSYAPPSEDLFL
Chain of Receptor-interacting serine/threonine-protein kinase 2 (Homo sapiens) (O43353 whole entry): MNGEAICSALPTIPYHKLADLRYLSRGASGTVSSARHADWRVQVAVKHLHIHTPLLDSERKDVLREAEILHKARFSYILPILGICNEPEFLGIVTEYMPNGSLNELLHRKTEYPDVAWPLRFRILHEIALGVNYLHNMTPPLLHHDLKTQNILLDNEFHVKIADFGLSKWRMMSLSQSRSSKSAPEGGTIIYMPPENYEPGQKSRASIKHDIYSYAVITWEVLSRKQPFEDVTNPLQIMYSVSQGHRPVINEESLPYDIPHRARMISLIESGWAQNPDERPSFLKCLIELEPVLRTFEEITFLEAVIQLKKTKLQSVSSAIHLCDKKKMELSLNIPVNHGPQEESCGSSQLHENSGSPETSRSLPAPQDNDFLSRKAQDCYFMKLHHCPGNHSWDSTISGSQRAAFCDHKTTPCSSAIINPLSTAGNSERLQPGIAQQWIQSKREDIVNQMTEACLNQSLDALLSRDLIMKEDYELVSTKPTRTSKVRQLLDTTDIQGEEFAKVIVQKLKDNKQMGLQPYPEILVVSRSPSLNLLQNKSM
Chain of TRAF2 and NCK-interacting protein kinase (Homo sapiens) (Q9UKE5 whole entry, looked up): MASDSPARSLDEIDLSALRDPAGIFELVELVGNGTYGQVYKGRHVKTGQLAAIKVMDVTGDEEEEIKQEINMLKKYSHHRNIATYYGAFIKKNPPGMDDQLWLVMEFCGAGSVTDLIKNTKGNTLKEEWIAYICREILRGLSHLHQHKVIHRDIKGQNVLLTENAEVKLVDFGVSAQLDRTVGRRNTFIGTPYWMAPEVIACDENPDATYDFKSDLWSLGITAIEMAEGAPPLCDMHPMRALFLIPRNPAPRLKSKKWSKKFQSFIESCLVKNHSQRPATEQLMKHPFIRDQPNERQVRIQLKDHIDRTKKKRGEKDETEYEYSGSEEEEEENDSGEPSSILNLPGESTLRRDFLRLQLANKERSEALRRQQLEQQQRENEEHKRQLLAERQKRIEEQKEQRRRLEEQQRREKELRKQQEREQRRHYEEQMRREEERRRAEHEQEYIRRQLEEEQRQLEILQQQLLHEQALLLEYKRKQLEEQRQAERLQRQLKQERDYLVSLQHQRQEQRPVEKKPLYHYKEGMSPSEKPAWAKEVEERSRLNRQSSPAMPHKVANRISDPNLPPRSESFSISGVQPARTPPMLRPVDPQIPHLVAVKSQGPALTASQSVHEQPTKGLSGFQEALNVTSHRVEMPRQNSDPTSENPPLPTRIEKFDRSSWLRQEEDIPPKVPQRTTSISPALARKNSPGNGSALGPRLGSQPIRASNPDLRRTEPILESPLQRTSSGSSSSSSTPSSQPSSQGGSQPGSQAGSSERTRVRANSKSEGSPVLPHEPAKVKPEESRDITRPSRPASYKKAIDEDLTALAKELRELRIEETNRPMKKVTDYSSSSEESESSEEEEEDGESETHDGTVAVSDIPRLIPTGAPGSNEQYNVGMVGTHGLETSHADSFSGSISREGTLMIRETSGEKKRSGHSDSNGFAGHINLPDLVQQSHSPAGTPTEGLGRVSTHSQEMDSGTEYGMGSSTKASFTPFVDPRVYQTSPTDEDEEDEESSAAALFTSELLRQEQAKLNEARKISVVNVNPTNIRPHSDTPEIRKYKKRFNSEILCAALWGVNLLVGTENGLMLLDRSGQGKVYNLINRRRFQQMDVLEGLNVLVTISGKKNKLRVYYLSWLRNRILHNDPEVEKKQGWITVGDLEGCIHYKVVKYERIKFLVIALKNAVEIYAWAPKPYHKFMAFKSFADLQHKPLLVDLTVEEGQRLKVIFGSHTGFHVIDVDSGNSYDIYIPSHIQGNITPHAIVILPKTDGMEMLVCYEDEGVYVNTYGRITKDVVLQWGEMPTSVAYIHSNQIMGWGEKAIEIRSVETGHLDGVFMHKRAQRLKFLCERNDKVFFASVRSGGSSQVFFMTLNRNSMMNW
Chain of Fibroblast growth factor receptor 4 (Homo sapiens) (P22455 22-802 limits assumed): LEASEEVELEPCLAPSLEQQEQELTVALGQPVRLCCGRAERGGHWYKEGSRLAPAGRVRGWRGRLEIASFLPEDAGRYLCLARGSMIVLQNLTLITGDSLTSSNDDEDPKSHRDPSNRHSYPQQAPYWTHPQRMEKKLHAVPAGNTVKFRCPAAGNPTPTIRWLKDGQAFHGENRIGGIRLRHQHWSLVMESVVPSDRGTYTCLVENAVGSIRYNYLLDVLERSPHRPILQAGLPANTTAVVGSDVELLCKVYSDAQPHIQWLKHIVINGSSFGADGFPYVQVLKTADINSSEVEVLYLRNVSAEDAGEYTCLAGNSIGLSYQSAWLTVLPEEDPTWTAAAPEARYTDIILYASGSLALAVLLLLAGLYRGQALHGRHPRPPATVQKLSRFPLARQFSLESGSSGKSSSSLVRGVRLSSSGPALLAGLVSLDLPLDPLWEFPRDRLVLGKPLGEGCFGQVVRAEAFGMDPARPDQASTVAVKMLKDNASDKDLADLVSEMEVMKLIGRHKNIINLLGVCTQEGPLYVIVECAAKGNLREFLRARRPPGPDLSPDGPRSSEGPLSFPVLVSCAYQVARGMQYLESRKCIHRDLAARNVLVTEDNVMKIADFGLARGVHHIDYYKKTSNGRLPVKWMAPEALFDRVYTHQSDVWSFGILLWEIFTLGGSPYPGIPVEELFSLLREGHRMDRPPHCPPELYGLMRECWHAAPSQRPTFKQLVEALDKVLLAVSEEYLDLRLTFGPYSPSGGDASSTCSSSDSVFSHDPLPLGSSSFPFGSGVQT
Chain of Eukaryotic translation initiation factor 2-alpha kinase 3 (Homo sapiens) (Q9NZJ5 whole entry, canonical isoform): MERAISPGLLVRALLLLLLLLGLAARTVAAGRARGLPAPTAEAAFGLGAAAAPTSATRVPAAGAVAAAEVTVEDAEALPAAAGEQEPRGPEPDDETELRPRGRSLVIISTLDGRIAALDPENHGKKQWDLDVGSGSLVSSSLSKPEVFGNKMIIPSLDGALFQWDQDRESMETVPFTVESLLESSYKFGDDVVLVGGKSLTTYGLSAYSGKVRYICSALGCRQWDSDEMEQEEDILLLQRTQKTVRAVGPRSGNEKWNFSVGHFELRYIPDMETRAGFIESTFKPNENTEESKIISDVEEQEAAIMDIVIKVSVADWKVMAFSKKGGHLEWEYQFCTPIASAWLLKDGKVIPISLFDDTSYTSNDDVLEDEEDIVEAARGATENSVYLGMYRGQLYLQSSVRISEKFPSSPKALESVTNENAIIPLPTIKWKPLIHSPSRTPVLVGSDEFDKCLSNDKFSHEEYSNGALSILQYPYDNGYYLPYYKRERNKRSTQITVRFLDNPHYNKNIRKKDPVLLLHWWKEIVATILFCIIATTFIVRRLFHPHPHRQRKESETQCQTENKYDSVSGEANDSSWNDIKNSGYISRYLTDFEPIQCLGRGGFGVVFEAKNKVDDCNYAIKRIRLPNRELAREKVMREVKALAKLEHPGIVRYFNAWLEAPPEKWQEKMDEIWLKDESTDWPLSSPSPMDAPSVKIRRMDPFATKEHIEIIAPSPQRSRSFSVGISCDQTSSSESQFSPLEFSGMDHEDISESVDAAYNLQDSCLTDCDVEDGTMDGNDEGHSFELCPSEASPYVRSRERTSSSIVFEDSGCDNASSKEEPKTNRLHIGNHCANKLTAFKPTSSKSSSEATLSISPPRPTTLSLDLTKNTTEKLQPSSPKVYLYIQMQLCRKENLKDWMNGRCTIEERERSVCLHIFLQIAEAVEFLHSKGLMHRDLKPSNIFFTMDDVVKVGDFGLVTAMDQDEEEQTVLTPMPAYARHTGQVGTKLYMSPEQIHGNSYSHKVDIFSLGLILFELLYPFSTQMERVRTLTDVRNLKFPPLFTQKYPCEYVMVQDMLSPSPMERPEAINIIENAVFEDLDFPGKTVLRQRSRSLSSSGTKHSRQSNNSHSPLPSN
Chain of Casein kinase I isoform gamma-1 (Homo sapiens) (Q9HCP0 whole entry, looked up, canonical isoform): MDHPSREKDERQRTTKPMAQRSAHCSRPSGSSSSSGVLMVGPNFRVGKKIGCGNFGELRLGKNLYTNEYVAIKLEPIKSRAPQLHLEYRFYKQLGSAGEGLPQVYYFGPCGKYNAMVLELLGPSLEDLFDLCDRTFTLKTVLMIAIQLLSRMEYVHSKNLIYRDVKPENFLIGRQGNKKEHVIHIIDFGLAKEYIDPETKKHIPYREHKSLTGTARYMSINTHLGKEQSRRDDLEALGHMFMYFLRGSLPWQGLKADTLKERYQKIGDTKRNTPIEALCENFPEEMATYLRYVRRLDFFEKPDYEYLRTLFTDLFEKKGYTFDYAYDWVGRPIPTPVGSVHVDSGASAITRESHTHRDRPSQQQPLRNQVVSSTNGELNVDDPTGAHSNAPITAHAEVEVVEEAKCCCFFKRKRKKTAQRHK

Row | Structure (SMILES) | IC50 [1] | inhibition [2] | inhibition [3] | inhibition [4] | inhibition [5] | inhibition (Homo sapiens [6]) | inhibition (Homo sapiens [7]) | inhibition [8] | inhibition [9] | inhibition [10] | inhibition [11] | inhibition [12] | inhibition [13] | inhibition [14] | inhibition [15] | inhibition [16] | inhibition [17] | inhibition [18] | inhibition [19] | inhibition [20] | further results
1 | CC(C)n1nc(C#Cc2cccc(NC(=O)c3cccc(C(F)(F)F)c3)c2)c2c(N)ncnc21 | 4 nM | -1% | 0% | 3% | 82% | -1% | 8% | -1% | 9% | 89% | -9% | 19% | 26% | -9% | 26% | 36% | 69% | -1% | -3% | 0% | inhibition [21]: -4%; inhibition [22]: 29%; inhibition [23]: 36%; inhibition [24]: 2%; inhibition [25]: -1%; inhibition [26]: 4%; inhibition [27]: 98%; inhibition [28]: 0%; inhibition [29]: -2%; inhibition [30]: 7%; inhibition [31]: 55%; inhibition [32]: 1%; inhibition [33]: 71%; inhibition [34]: -10%
2 | CC(C)n1nc(C#Cc2cccc3cc(-c4cccc(C(F)(F)F)c4)ncc23)c2c(N)ncnc21 | 65 nM | 0% | -10% | 1% | 27% | 0% | 1% | -1% | -5% | 62% | 3% | 3% | -3% | 2% | 8% | 3% | 3% | 5% | 2% | -5% | inhibition [21]: 1%; inhibition [22]: 0%; inhibition [23]: -8%; inhibition [24]: 5%; inhibition [25]: 2%; inhibition [26]: 3%; inhibition [27]: 82%; inhibition [28]: 0%; inhibition [29]: -3%; inhibition [30]: 10%; inhibition [31]: 20%; inhibition [32]: 2%; inhibition [33]: 4%; inhibition [34]: 1%
